# Values joined by “and” are separate entries in the source; they are usually repeats but may differ in a detail not shown here. Equal entries are not always repeated. Where two headings read alike, the source gives them in different places.
# Legend:
# Assay type in all cases: in vivo
# [1] = test system: Velvetleaf (Abutilon theophrasti MEDIC.); assay: Test Example 9: pot test, Example 8 suspension concentrate with Frigate; conditions: 22 days after treatment; for inhibition at 20 g/ha: Compound A 20 g/ha; for inhibition at 40 g/ha: Compound A 40 g/ha
# Experimental: (§1) Velvetleaf (Abutilon theophrasti MEDIC.) and common cocklebur (Xanthium strumarium L.) seeds were sown in 1/1,000,000-hectare pots filled with upland soil and arranged in a duplicate system. When the velvetleaf plants and common cocklebur plants grew to a 2.1- and 2.3-leaf stage, respectively, the oil-based suspension concentrate obtained in Example 8 was diluted with 500 liters/hectare of water containing a predetermined amount of Frigate and was applied foliarly to the plants with a small spray gun.
# (§2) Twenty two days after treatment, the growth inhibition of plants was evaluated with visual observation in the same manner as in Test Example 1 and are shown in Table 9.
# [2] = test system: common cocklebur (Xanthium strumarium L.); assay: as above; conditions: 22 days after treatment; for inhibition at 40 g/ha: Compound A 40 g/ha
# Experimental: as §1, §2
# [3] = test system: barnyardgrass (Echinochloa crus-galli L.); assay: Test Example 12: field plot test, growth inhibition; conditions: 648 h, Example 8 suspension concentrate, 27 days after treatment, field plots, read-out: Growth Inhibition (%) EC
# Text: (§3) In field plots of 3 m² (1 m × 3 m) unit arranged in a duplicate system, seeds of corn, crabgrass (Digitaria sanguinalis L.), green foxtail (Setaria viridis L.), common lambsquarters (Chenopodium album L.), slender amaranth (Amaranthus virdis L.) and velvetleaf (Abutilon theophrasti MEDIC.) were sown and grown. Also, barnyardgrass (Echinochloa crus-galli L.), henbit (Lamiun amplexlcaule L.), pale smartweed (Polygonum lapathifolium L.) and threeseeded copperleaf (Acalypha australis L.) were allowed to grow spontaneously. When the plants grew to certain stages (corn: 6.1 to 6.5-leaf stage, crabgrass: 2.0 to 4.5-leaf stage, green foxtail: 3.0 to 4.5-leaf stage, common lambsquarters: 4.0 to 8.0-leaf stage, slender amaranth: 1.0 to 4.0-leaf stage, velvetleaf: 2.0 to 3.5-leaf stage, barnyardgrass: 3.0 to 4.5-leaf stage, henbit: 2.0 to 5.0 cm, pale smartweed: 3.0 to 5.0-leaf stage and threeseeded copperleaf: 2.0 to 4.0-leaf stage), the oil-based suspension concentrate obtained in Example 8 was diluted with 200 liters/hectare of water containing a predetermined amount of Frigate and was applied foliarly to the plants with a small spray gun.
# (§4) Twenty seven days after treatment, the growth inhibition of plants except for corn plants was evaluated with visual observation in the same manner as in Test Example 1 and are shown in Table 12.
# [4] = test system: green foxtail (Setaria viridis L.); assay: as above; conditions: 648 h, Example 8 suspension concentrate, 27 days after treatment, field plots, read-out: Growth Inhibition (%) SV
# Text: as §3, §4
# [5] = test system: pale smartweed (Polygonum lapathifolium L.); assay: as above; conditions: Example 8 suspension concentrate, 27 days after treatment, field plots; for inhibition at 60 g/ha: Compound A 60 g/ha
# Text: as §3, §4
# [6] = test system: Crabgrass (Digitaria sanguinalis L.); assay: Test Example 13: field plot test, growth inhibition; conditions: 648 h, Example 8 suspension concentrate, 27 days after treatment, field plots, read-out: Growth Inhibition (%) DS; for inhibition at 30 g/ha: Compound A 30 g/ha; for inhibition at 40 g/ha: Compound A 40 g/ha
# Text: (§5) In field plots of 4 m² (1 m × 4 m) unit arranged in a duplicate system, seeds of corn, crabgrass (Digitaria sanguinalis L.) common lambsquarters (Chenopodium album L.), slender amaranth (Amaranthus viridis L.), velvetleaf (Abutilon theophrasti MEDIC.) and common cocklebur (Xanthium strumarium L.) were sown and grown. Also, green foxtail (Setaria viridis L.) and barnyardgrass (Echinochloa crus-galli L.) were allowed to grow spontaneously. When the plants grew to certain stages (corn: 4.2 to 6.0-leaf stage, crabgrass: 3.2 to 5.0-leaf stage, common lambsquarters: 3.0 to 6.0-leaf stage, slender amaranth: 2.0 to 5.0-leaf stage, velvetleaf: 1.5 to 4.0-leaf stage, common cocklebur: cotyledonal to 3.5-leaf stage, green foxtail: 3.0 to 5.0-leaf stage and barnyardgrass: 3.0 to 5.0-leaf stage), the oil-based suspension concentrate obtained in Example 8 was diluted with 200 liters/hectare of water containing a predetermined amount of Frigate and was applied foliarly to the plants with a small spray gun.
# (§6) Twenty seven days after treatment, the growth inhibition of plants except for corn plants was evaluated with visual observation in the same manner as in Test Example 1 and are shown in Table 13.
# [7] = test system: common cocklebur (Xanthium strumarium L.); assay: as above; conditions: Example 8 suspension concentrate, 27 days after treatment, field plots
# Text: as §5, §6
# [8] = test system: green foxtail (Setaria viridis L.); assay: as above; conditions: Example 8 suspension concentrate, 27 days after treatment, field plots; for inhibition at 40 g/ha: Compound A 40 g/ha
# Text: as §5, §6
# [9] = Abutilon theophrasti, 528 h, Frigate 0.125 % by volume, duplicate, read-out: Growth Inhibition (%) Velvetleaf
# [10] = Abutilon theophrasti, 528 h, Frigate 0.25 % by volume, duplicate, read-out: Growth Inhibition (%) Velvetleaf
# [11] = Abutilon theophrasti, 528 h, Frigate: No addition, duplicate, read-out: Growth Inhibition (%) Velvetleaf
# [12] = Frigate 0.25 % by volume, Compound A 10 g/ha, duplicate
# [13] = Frigate 0.2 % by volume, Compound A 20 g/ha
# [14] = Frigate 0.2 % by volume, Compound A 30 g/ha
# [15] = Frigate 0.2 % by volume, Compound A 40 g/ha
# [16] = Frigate: No addition, Compound A 60 g/ha
smiles,measurement,setting,value
"COc1cc(OC)nc(NC(=O)NS(=O)(=O)c2ncccc2C(=O)N(C)C)n1 [Compound A, N-[(4,6-dimethoxypyrimidin-2-yl)aminocarbonyl]-3-dimethylaminocarbonyl-2-pyridinesulfonamide]",inhibition at 10 g/ha,"[1]; Abutilon theophrasti, 528 h, Frigate 0.125 % by volume, Compound A 10 g/ha, duplicate, read-out: Growth Inhibition (%) Velvetleaf",30%
same,inhibition at 20 g/ha,[1]; [9],65%
same,inhibition at 40 g/ha,[1]; [9],85%
same,inhibition at 10 g/ha,"[1]; Abutilon theophrasti, 528 h, Frigate 0.25 % by volume, Compound A 10 g/ha, duplicate, read-out: Growth Inhibition (%) Velvetleaf",40%
same,inhibition at 20 g/ha,[1]; [10],80%
same,inhibition at 40 g/ha,[1]; [10],85%
same,inhibition at 10 g/ha,"[1]; Abutilon theophrasti, 528 h, Frigate 0.5 % by volume, Compound A 10 g/ha, duplicate, read-out: Growth Inhibition (%) Velvetleaf",60%
same,inhibition at 20 g/ha,"[1]; Abutilon theophrasti, 528 h, Frigate 0.5 % by volume, duplicate, read-out: Growth Inhibition (%) Velvetleaf",80%
same,inhibition at 40 g/ha,"[1]; Abutilon theophrasti, 528 h, Frigate 0.5 % by volume, read-out: Growth Inhibition (%) Velvetleaf",90%
same,inhibition at 20 g/ha,[1]; [11],20%
same,inhibition at 40 g/ha,[1]; [11],65%
same,inhibition at 50 g/ha,"[1]; Abutilon theophrasti, 528 h, Frigate: No addition, Compound A 50 g/ha, duplicate, read-out: Growth Inhibition (%) Velvetleaf",75%
same,inhibition at 60 g/ha,"[1]; Abutilon theophrasti, 528 h, Frigate: No addition, Compound A 60 g/ha, duplicate, read-out: Growth Inhibition (%) Velvetleaf",80%
same,Growth Inhibition (%) Velvetleaf,[1]; [12],50%
same,Growth Inhibition (%) Common Cocklebur,[2]; [12],25%
same,Growth Inhibition (%) Common Cocklebur,"[2]; Frigate: No addition, Compound A 20 g/ha, duplicate",40%
same,inhibition at 10 g/ha,"[2]; Xanthium strumarium, 528 h, Frigate 0.125 % by volume, Compound A 10 g/ha, duplicate, read-out: Growth Inhibition (%) Common Cocklebur",35%
same,inhibition at 20 g/ha,"[2]; Xanthium strumarium, 528 h, Frigate 0.125 % by volume, Compound A 20 g/ha, duplicate, read-out: Growth Inhibition (%) Common Cocklebur",80%
same,inhibition at 40 g/ha,"[2]; Xanthium strumarium, 528 h, Frigate 0.125 % by volume, duplicate, read-out: Growth Inhibition (%) Common Cocklebur",100%
same,inhibition at 10 g/ha,"[2]; Xanthium strumarium, 528 h, Frigate 0.25 % by volume, Compound A 10 g/ha, duplicate, read-out: Growth Inhibition (%) Common Cocklebur",30%
same,inhibition at 20 g/ha,"[2]; Xanthium strumarium, 528 h, Frigate 0.25 % by volume, Compound A 20 g/ha, duplicate, read-out: Growth Inhibition (%) Common Cocklebur",95%
same,inhibition at 40 g/ha,"[2]; Xanthium strumarium, 528 h, Frigate 0.25 % by volume, duplicate, read-out: Growth Inhibition (%) Common Cocklebur",100%
same,inhibition at 10 g/ha,"[2]; Xanthium strumarium, 528 h, Frigate 0.5 % by volume, Compound A 10 g/ha, duplicate, read-out: Growth Inhibition (%) Common Cocklebur",60%
same,inhibition at 20 g/ha,"[2]; Xanthium strumarium, 528 h, Frigate 0.5 % by volume, Compound A 20 g/ha, duplicate, read-out: Growth Inhibition (%) Common Cocklebur",98%
same,inhibition at 40 g/ha,"[2]; Xanthium strumarium, 528 h, Frigate 0.5 % by volume, read-out: Growth Inhibition (%) Common Cocklebur",100%
same,inhibition at 40 g/ha,"[2]; Xanthium strumarium, 528 h, Frigate: No addition, duplicate, read-out: Growth Inhibition (%) Common Cocklebur",85%
same,inhibition at 50 g/ha,"[2]; Xanthium strumarium, 528 h, Frigate: No addition, Compound A 50 g/ha, duplicate, read-out: Growth Inhibition (%) Common Cocklebur",95%
same,inhibition at 60 g/ha,"[2]; Xanthium strumarium, 528 h, Frigate: No addition, Compound A 60 g/ha, duplicate, read-out: Growth Inhibition (%) Common Cocklebur",98%
same,inhibition at 20 g/ha,[3]; [13],100%
same,inhibition at 30 g/ha,[3]; [14],100%
same,inhibition at 40 g/ha,[3]; [15],100%
same,inhibition at 60 g/ha,[3]; [16],100%
same,inhibition at 20 g/ha,[4]; [13],100%
same,inhibition at 30 g/ha,[4]; [14],100%
same,inhibition at 40 g/ha,[4]; [15],100%
same,inhibition at 60 g/ha,[4]; [16],100%
same,Growth Inhibition (%) PL,[5]; [13],80%
same,Growth Inhibition (%) PL,"[5]; Frigate: No addition, Compound A 40 g/ha",70%
same,inhibition at 20 g/ha,"[5]; Persicaria lapathifolia, 648 h, Frigate 0.2 % by volume, Compound A 20 g/ha, read-out: Growth Inhibition (%) PL",100%
same,inhibition at 30 g/ha,"[5]; Persicaria lapathifolia, 648 h, Frigate 0.2 % by volume, Compound A 30 g/ha, read-out: Growth Inhibition (%) PL",100%
same,inhibition at 40 g/ha,"[5]; Persicaria lapathifolia, 648 h, Frigate 0.2 % by volume, Compound A 40 g/ha, read-out: Growth Inhibition (%) PL",95%
same,inhibition at 60 g/ha,"[5]; Persicaria lapathifolia, 648 h, Frigate 0.2 % by volume, read-out: Growth Inhibition (%) PL",98%
same,inhibition at 40 g/ha,"[5]; Persicaria lapathifolia, 648 h, Frigate: No addition, Compound A 40 g/ha, read-out: Growth Inhibition (%) PL",90%
same,inhibition at 60 g/ha,"[5]; Persicaria lapathifolia, 648 h, Frigate: No addition, read-out: Growth Inhibition (%) PL",100%
same,inhibition at 30 g/ha,[6]; Frigate 0.1 % by volume,85%
same,inhibition at 40 g/ha,[6]; Frigate 0.1 % by volume,95%
same,inhibition at 20 g/ha,[6]; [13],85%
same,inhibition at 30 g/ha,[6]; Frigate 0.2 % by volume,85%
same,inhibition at 40 g/ha,[6]; Frigate 0.2 % by volume,90%
same,inhibition at 30 g/ha,[6]; Frigate: No addition,75%
same,inhibition at 40 g/ha,[6]; Frigate: No addition,80%
same,inhibition at 50 g/ha,"[6]; Frigate: No addition, Compound A 50 g/ha",85%
same,Growth Inhibition (%) XS,[7]; [15],65%
same,Growth Inhibition (%) XS,"[7]; Frigate: No addition, Compound A 30 g/ha",25% and 50%
same,inhibition at 30 g/ha,"[7]; Xanthium strumarium, 648 h, Frigate 0.1 % by volume, Compound A 30 g/ha, read-out: Growth Inhibition (%) XS",80%
same,inhibition at 40 g/ha,"[7]; Xanthium strumarium, 648 h, Frigate 0.1 % by volume, Compound A 40 g/ha, read-out: Growth Inhibition (%) XS",80%
same,inhibition at 20 g/ha,"[7]; Xanthium strumarium, 648 h, Frigate 0.2 % by volume, Compound A 20 g/ha, read-out: Growth Inhibition (%) XS",80%
same,inhibition at 30 g/ha,"[7]; Xanthium strumarium, 648 h, Frigate 0.2 % by volume, Compound A 30 g/ha, read-out: Growth Inhibition (%) XS",85%
same,inhibition at 40 g/ha,"[7]; Xanthium strumarium, 648 h, Frigate: No addition, Compound A 40 g/ha, read-out: Growth Inhibition (%) XS",75%
same,inhibition at 50 g/ha,"[7]; Xanthium strumarium, 648 h, Frigate: No addition, Compound A 50 g/ha, read-out: Growth Inhibition (%) XS",70%
same,Growth Inhibition (%) SV,"[8]; Frigate 0.1 % by volume, Compound A 30 g/ha",40%
same,inhibition at 40 g/ha,"[8]; Setaria viridis, 648 h, Frigate 0.1 % by volume, read-out: Growth Inhibition (%) SV",70%
same,inhibition at 20 g/ha,"[8]; Setaria viridis, 648 h, Frigate 0.2 % by volume, Compound A 20 g/ha, read-out: Growth Inhibition (%) SV",60%
same,inhibition at 30 g/ha,"[8]; Setaria viridis, 648 h, Frigate 0.2 % by volume, Compound A 30 g/ha, read-out: Growth Inhibition (%) SV",65%
same,inhibition at 40 g/ha,"[8]; Setaria viridis, 648 h, Frigate 0.2 % by volume, read-out: Growth Inhibition (%) SV",75%
same,inhibition at 30 g/ha,"[8]; Setaria viridis, 648 h, Frigate: No addition, Compound A 30 g/ha, read-out: Growth Inhibition (%) SV",65%
same,inhibition at 40 g/ha,"[8]; Setaria viridis, 648 h, Frigate: No addition, read-out: Growth Inhibition (%) SV",70%
same,inhibition at 50 g/ha,"[8]; Setaria viridis, 648 h, Frigate: No addition, Compound A 50 g/ha, read-out: Growth Inhibition (%) SV",80%
